From patent US20220143198A1, “COMPOSITIONS AND METHODS RELATED TO TETHERED KETHOXAL DERIVATIVES” (The University of Chicago, priority 2019, published 2022)

Key:
guanosine [1] = experiment: Reactivity of kethoxal derivatives with guanosine (conversion rates of guanosine); type: biochemical
guanosine [2] = experiment: Reversibility of kethoxal derivatives by adjusting pH (kethoxal-guanosine adduct dissociation); type: physicochemical
guanosine [3] = experiment: Reversibility of kethoxal derivatives using GTP for competition (LCMS of free guanosine); type: physicochemical; conditions: 1:1 ratio
[4] = pH = 5.8, 10 min after adjusting from pH 10.1, 1:1 ratio
[5] = pH = 5.8, 4 h after adjusting from pH 10.1, 1:1 ratio
[6] = pH = 5.8, 24 h after adjusting from pH 10.1, 1:1 ratio
[7] = pH = 10.1, 10 min, kethoxal derivative and guanosine 1:1
[8] = pH = 7.0, 10 min, excess GTP added after 10 min
[9] = pH = 7.0, 2 h, excess GTP competitor
[10] = pH = 7.0, 24 h, excess GTP competitor

[N-]=[N+]=NCCOC(F)C(=O)C=O (stereo not shown) [drawing 58]
Conversion rate of guanosine (guanosine [1]; pH = 7.0, S1:S2 = 1:0): 24.7%
Conversion rate of guanosine (guanosine [1]; pH = 7.0, S1:S2 = 1:1): 6.4%
Conversion rate of guanosine (guanosine [1]; pH = 7.0, S1:S2 = 1:2): 8.2%
Conversion rate of guanosine (guanosine [1]; pH = 7.0, S1:S2 = 1:4): 16.5%
Conversion rate of guanosine (guanosine [1]; pH = 7.0, S1:S2 = 2:1): 3.2%

[N-]=[N+]=NCCOC(F)(F)C(=O)C=O [drawing 59]
Conversion rate of guanosine (guanosine [1]; pH = 7.0, S1:S2 = 1:0): 9.8%
Conversion rate of guanosine (guanosine [1]; pH = 7.0, S1:S2 = 1:1): 1.4%
Conversion rate of guanosine (guanosine [1]; pH = 7.0, S1:S2 = 1:2): 1.9%
Conversion rate of guanosine (guanosine [1]; pH = 7.0, S1:S2 = 1:4): 3.8%
Conversion rate of guanosine (guanosine [1]; pH = 7.0, S1:S2 = 2:1): 0%

O=CC(=O)Cc1ccccc1 [drawing 60]
Conversion rate of guanosine (guanosine [1]; pH = 7.0, S1:S2 = 1:1): 22.5%
Conversion rate of guanosine (guanosine [1]; pH = 7.0, S1:S2 = 1:2): 30.4%
Conversion rate of guanosine (guanosine [1]; pH = 7.0, S1:S2 = 2:1): 9.0%

CC(OCCN=[N+]=[N-])C(=O)C=O (stereo not shown) [drawing 62]
Conversion of guanosine (guanosine [2]; [4]): 79.8%
Conversion of guanosine (guanosine [2]; [5]): 80.2%
Conversion of guanosine (guanosine [2]; [6]): 81.8%
Conversion of guanosine (guanosine [2]; [7]): 79.8%

CC(C)(OCCN=[N+]=[N-])C(=O)C=O [drawing 63]
Conversion of guanosine (guanosine [2]; [5]): 77.6%
Conversion of guanosine (guanosine [2]; [6]): 80.3%
Conversion of guanosine (guanosine [2]; [7]): 77.0%

[N-]=[N+]=NCCOCC(=O)C=O [drawing 64]
Conversion of guanosine (guanosine [2]; [5]): 75.0%
Conversion of guanosine (guanosine [2]; [6]): 76.1%
Conversion of guanosine (guanosine [2]; [7]): 74.6%

CC(OC(=O)CN=[N+]=[N-])C(=O)C=O (stereo not shown) [drawing 65]
Conversion of guanosine (guanosine [2]; [5]): 77.3%
Conversion of guanosine (guanosine [2]; [6]): 77.2%
Conversion of guanosine (guanosine [2]; [7]): 75.5%

CC(N=[N+]=[N-])C(=O)C=O (stereo not shown) [drawing 66]
Conversion of guanosine (guanosine [2]; [4]): 65.6%
Conversion of guanosine (guanosine [2]; [5]): 65.2%
Conversion of guanosine (guanosine [2]; [6]): 58.7%
Conversion of guanosine (guanosine [2]; [7]): 65.9%

CC(Br)C(=O)C=O (stereo not shown) [drawing 67]
Conversion of guanosine (guanosine [2]; [5]): 64.3%
Conversion of guanosine (guanosine [2]; [6]): 62.9%
Conversion of guanosine (guanosine [2]; [7]): 62.7%

CC(OCCN=[N+]=[N-])C(=O)C=O (stereo not shown) [drawing 77]
Conversion of guanosine under competition condition (guanosine [3]; [8]): 71.4%
Conversion of guanosine under competition condition (guanosine [3]; [9]): 60.8%
Conversion of guanosine under competition condition (guanosine [3]; [10]): 28.9%

CC(C)(OCCN=[N+]=[N-])C(=O)C=O [drawing 78]
Conversion of guanosine under competition condition (guanosine [3]; [8]): 51.6%
Conversion of guanosine under competition condition (guanosine [3]; [9]): 55.9%
Conversion of guanosine under competition condition (guanosine [3]; [10]): 33.6%

[N-]=[N+]=NCCOCC(=O)C=O [drawing 79]
Conversion of guanosine under competition condition (guanosine [3]; [8]): 47.4%
Conversion of guanosine under competition condition (guanosine [3]; [9]): 29.7%
Conversion of guanosine under competition condition (guanosine [3]; [10]): 27.4%

CC(OC(=O)CN=[N+]=[N-])C(=O)C=O (stereo not shown) [drawing 80]
Conversion of guanosine under competition condition (guanosine [3]; [8]): 54.4%
Conversion of guanosine under competition condition (guanosine [3]; [9]): 44.6%
Conversion of guanosine under competition condition (guanosine [3]; [10]): 37.5%

CC(N=[N+]=[N-])C(=O)C=O (stereo not shown) [drawing 81]
Conversion of guanosine under competition condition (guanosine [3]; [8]): 56.5%
Conversion of guanosine under competition condition (guanosine [3]; [9]): 40.9%

CC(Br)C(=O)C=O (stereo not shown) [drawing 82]
Conversion of guanosine under competition condition (guanosine [3]; [8]): 46.2%
Conversion of guanosine under competition condition (guanosine [3]; [9]): 38.2%
Conversion of guanosine under competition condition (guanosine [3]; [10]): 18.6%

[N-]=[N+]=NCCCC(=O)C=O [drawing 85]
Conversion of guanosine under competition condition (guanosine [3]; [8]): 46.2%
Conversion of guanosine under competition condition (guanosine [3]; [9]): 21.0%
Conversion of guanosine under competition condition (guanosine [3]; [10]): 22.1%

CC(C(=O)C=O)N(C)C(=O)CN=[N+]=[N-] (stereo not shown) [drawing 86]
Conversion of guanosine under competition condition (guanosine [3]; [8]): 41.8%
Conversion of guanosine under competition condition (guanosine [3]; [9]): 26.1%
Conversion of guanosine under competition condition (guanosine [3]; [10]): 23.4%

[N-]=[N+]=NCCOCCC(=O)C=O [drawing 87]
Conversion of guanosine under competition condition (guanosine [3]; [8]): 41.3%
Conversion of guanosine under competition condition (guanosine [3]; [9]): 12.6%
Conversion of guanosine under competition condition (guanosine [3]; [10]): 11.2%

O=CC(=O)c1ccccc1 [drawing 88]
Conversion of guanosine under competition condition (guanosine [3]; [8]): 25.7%
Conversion of guanosine under competition condition (guanosine [3]; [9]): 12.3%
Conversion of guanosine under competition condition (guanosine [3]; [10]): 4.4%

[N-]=[N+]=NCCOC(F)C(=O)C=O (stereo not shown) [drawing 89]
Conversion of guanosine under competition condition (guanosine [3]; [8]): 6.4%
Conversion of guanosine under competition condition (guanosine [3]; [9]): 18.6%
Conversion of guanosine under competition condition (guanosine [3]; [10]): 22.8%

[N-]=[N+]=NCCOC(F)(F)C(=O)C=O [drawing 90]
Conversion of guanosine under competition condition (guanosine [3]; pH = 10.1, 10 min, excess GTP added after 10 min): 51.2% (pH = 10.1)
Conversion of guanosine under competition condition (guanosine [3]; pH = 10.1, 2 h, excess GTP competitor): 42.4% (pH = 10.1)
Conversion of guanosine under competition condition (guanosine [3]; pH = 10.1, 24 h, excess GTP competitor): 22.2% (pH = 10.1)

O=CC(=O)Cc1ccccc1 [drawing 91]
Conversion of guanosine under competition condition (guanosine [3]; [8]): 21.8%
Conversion of guanosine under competition condition (guanosine [3]; [9]): 9.6%
Conversion of guanosine under competition condition (guanosine [3]; [10]): 8.4%

O=CC(=O)c1ccccc1 [phenyl-substituted kethoxal derivative]
Conversion rate of guanosine (guanosine [1]; pH = 7.0, S1:S2 = 1:1): 18.8%
Conversion rate of guanosine (guanosine [1]; pH = 7.0, S1:S2 = 1:2): 37.6%
Conversion rate of guanosine (guanosine [1]; pH = 7.0, S1:S2 = 1:3): 51.0%
Conversion rate of guanosine (guanosine [1]; pH = 7.0, S1:S2 = 1:5): 67.0%
Conversion rate of guanosine (guanosine [1]; pH = 7.8, S1:S2 = 1:1): 32.2%
Conversion rate of guanosine (guanosine [1]; pH = 7.8, S1:S2 = 1:2): 51.2%
Conversion rate of guanosine (guanosine [1]; pH = 7.8, S1:S2 = 1:3): 66.2%
Conversion rate of guanosine (guanosine [1]; pH = 7.8, S1:S2 = 1:5): 80.1%
